The results in this text go back to patent US11186588B2 (AYUMI PHARMACEUTICAL CORPORATION, priority 2017, dated 2021).

In one data set the test system is IL-6 production. Put plainly: LPS-induced IL-6 production model test. It is filed as in vivo, C57BL/6J mice. The note with it: 10 mg/kg oral, 30 min before LPS 1 mg/kg i.p., serum IL-6 60 min after LPS, mice; for inhibition in vivo at 10 mg/kg: Mus musculus, 1 h. How it is done:
In order to evaluate the inhibitory activity of inflammatory cytokine production in the present compounds, LPS-induced IL-6 production model evaluation was carried out. The specific method is described below.
An appropriate amount of each compound was weighed, triturated with an agate mortar, and suspended or dissolved in 1% methyl cellulose solution to prepare 1 mg/mL solution.
C57BL/6J mice (male, Purchaser: Charles River Laboratories Japan, Inc.) were weighted, before divided into normal group, control group and each compound-administered group based on the measured body weight using a random number, wherein each group contained 6 samples. The mice were manually held in hands and forced orally administered the 1% methyl cellulose solution (normal and control group) or each administration solution comprising the compound (each compound-administered group) at a dose of 10 mL/kg into stomach using a feeding needle. After 30 minutes from administration of the 1% methyl cellulose solution or each compound administration solution, the mice were manually held in hands and intraperitoneally administered physiological saline (normal group) or LPS solution (control and each compound-administered group) at a dose of 1 mg/kg. After 60 minutes from administration of the LPS solution, whole blood was collected from the abdominal vena cava of each mouse under isoflurane inhalation anesthesia (available from Mylan Seiyaku Ltd.), and the mice were euthanized. The collected blood was allowed to stand at room temperature for one hour, and then centrifuged at 1,500 G for 10 minutes to collect a serum (supernatant). The collected serum was stored in a deep freezer set at −80° C. until the measurement of IL-6 in the serum. The IL-6 concentration in the serum of each mouse was measured by a commercially available kit (available from R&D systems, Cat No. M6000B), according to the protocol attached thereto.
The IL-6 production inhibition rate (%) was calculated by the following equation using Microsoft EXCEL 2010. IL-6 production inhibition rate (%)=100−{(average value of IL-6 concentration in serum of each compound-administered group)−(average value of IL-6 concentration in serum of normal group))/(average value of IL-6 concentration in serum of control group)−(average value of IL-6 concentration in serum of normal group)}×100

The nature of data set [1]: Pharmacokinetics test in rats (oral administration). It is filed as in vivo, LEW/CrlCrlj rats. The note with it: mean n = 4; for AUCinf / AUCt / Cmax / Kel / MRT / T1/2 / Tmax: oral 2 mg/mL solution at 5 mL/kg; for Concentration (ng/mL), sampling time 0.5 h / Concentration (ng/mL), sampling time 1 h / Concentration (ng/mL), sampling time 3 h / Concentration (ng/mL), sampling time 6 h: plasma; for Concentration (ng/mL), sampling time 0.5 h: 0.5 h after oral 2 mg/mL solution at 5 mL/kg; for Concentration (ng/mL), sampling time 1 h: 1 h after oral 2 mg/mL solution at 5 mL/kg; for Concentration (ng/mL), sampling time 3 h: 3 h after oral 2 mg/mL solution at 5 mL/kg; for Concentration (ng/mL), sampling time 6 h: 6 h after oral 2 mg/mL solution at 5 mL/kg. How it is done:
In order to evaluate the transition of plasma concentration of the present compound after oral administration, pharmacokinetics was evaluated in rats. The specific method is described below.
Appropriate amounts of Example 71 and various salts thereof were weighed, triturated with an agate mortar, and suspended or dissolved in 1% methyl cellulose solution to 2 mg/mL (as a converted quantity of Example 71 considering the correction of purify).
LEW/CrlCrlj rats (male, purchased form Charles River Laboratories Japan, Inc.) were weighted, a random number based on the measured body weight was used to avoid difference in average body weight among groups, and the rats were divided into groups, wherein each groups contained 4 rats. The rats were manually held in hands and forced orally administered each administration solution comprising the compound at a dose of 5 mL/kg into stomach using a feeding needle. At 0.5, 1, 3, 6 and 24 hours after the administration of each administration solution comprising the compound, the rats were manually held in hands, and blood was collected from the jugular vein or subclavian vein using a heparin-treated injection syringe. The obtained blood was centrifuged at 1,500 G for 10 minutes, and plasma was collected as an actual sample. In addition, plasma was collected from rats before the administration of the compound in the same manner, which was used as blank plasma. The collected actual samples and blank plasma were stored in a freezer set at −70° C. until the measurement of the compound concentration. To 20 μL of each actual sample were added 20 μL of acetonitrile (available from Kishida Chemical Co., Ltd., Cat No. 140-00401), 100 μL of MilliQ water and 20 μL of the internal standard solution to prepare an analytical sample. In addition, to 20 μL of blank plasma were added 20 μL or 40 μL of acetonitrile (available from Kishida Chemical Co., Ltd., Cat No. 140-00401) and 100 μL of MilliQ water (a blank sample or a zero sample, respectively). A standard sample for a calibration curve was prepared by mixing 20 μL of blank plasma, 20 μL of the standard solution for a calibration curve in each concentration, 100 μL of MilliQ water and 20 μL of the internal standard solution. Whole amount of the prepared each sample was applied to a diatomaceous earth column for liquid-liquid extraction (available from Biotage, Cat No. 820-0200), tert-butyl methyl ether (available from Kanto Chemical Co., Inc., Cat No. 04418-5B) was added and eluted by natural dropping, and the obtained eluate was concentrated to dryness under a nitrogen stream. The residue was dissolved in the re-dissolved solution and 10 μL of each sample was injected into the LC/MS/MS apparatus.
LC/MS/MS analysis was carried out under the following conditions. Analytical column: Hydrosphere C18, 3 μm, 2.0 mm I.D.×50 mm (from YMC, Cat No. HS12S03-0502WT)
Flow rate: 0.3 mL/min. Column temperature: 50° C. Peak area calculation, peak area ratio calculation, preparation of calibration and quantification used in calculating the concentration for the LC/MS/MS analysis were carried out by Analyst ver.1.6.2 (available from AB Sciex). In addition, by using the obtained concentration measurement results, these were analyzed by Non-compartmental model of a pharmacokinetics analysis program WinNonlin ver.6.1 (Pharsight Corporation), and the pharmacokinetics parameter was calculated.

For data set [2], the target named is Recombinant BRD4 (44-168) protein (Homo sapiens (Human), UniProt O60885). Put plainly: BRD4-H4KAc4 binding assay (amplified luminescence proximity homogeneous assay, AlphaScreen). The note with it: 10 uM. The method in brief: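 His/FLAG-tagged BRD4 (44-168) and biotinylated tetra-acetylated H4 peptide, each added as 250 nM solutions, incubated with compound 60 min at room temperature in the dark, then AlphaScreen beads 60 min. Emission 520-620 nm at 680 nm excitation, duplicates; % inhibition from blank- and DMSO-corrected signal.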

The next data set concerns NF-κB. Description: NF-κB reporter gene assay (TNF-α stimulated A549/NF-κB-luc cells). The note with it: Homo sapiens, TNF-α stimulation. Type of data set: cell-based. The method in brief:
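A549 cells stably carrying an NF-κB luciferase reporter were preincubated with compound for 1 h, then stimulated with TNF-α for 3 h. Luminescence was read with Steady-Glo, and inhibition was scaled between blank and DMSO control wells. IC50 was obtained by curve fitting.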

For orientation: Cmax means the maximum level reached in the sampled fluid or tissue. For orientation: MRT means a mean duration of stay, worked out from the concentration-time curve. In general, Tmax refers to the time at which the peak concentration occurs. Regarding `CC(=O)Nc1ccc(C2=NN(Cc3cccnc3)c3nnc(C)n3-c3sc(C)c(C)c32)cc1.CC(=O)Nc1ccc(C2=NN(Cc3cccnc3)c3nnc(C)n3-c3sc(C)c(C)c32)cc1.O=C(O)/C=C/C(=O)O` [0.5 Fumarate of Example 71], the “LPS-induced IL-6 production (% Inhibition @ 10 mg/kg)” value with IL-6 production amounted to 83.0%. In data set [1], this compound came in with an AUCinf of 54.47 ng·h/mL, an AUCt of 31.38 ng·h/mL, a Cmax of 15.70 ng/mL and a Kel of 0.35 h⁻¹. Also, in data set [1], the MRT was determined as 1.63 h; the T1/2 is given as 3.02 h; the Tmax amounted to 0.50 h; the “Concentration (ng/mL), sampling time 0.5 h” value was determined as 15.70 ng/mL. In data set [1], the “Concentration (ng/mL), sampling time 1 h” value worked out at 11.3 ng/mL; the “Concentration (ng/mL), sampling time 3 h” value is given as 4.28 ng/mL; the “Concentration (ng/mL), sampling time 6 h” value was 2.29 ng/mL.
With `CC(=O)Nc1ccc(C2=NN(Cc3cccnc3)c3nnc(C)n3-c3sc(C)c(C)c32)cc1.CC(=O)Nc1ccc(C2=NN(Cc3cccnc3)c3nnc(C)n3-c3sc(C)c(C)c32)cc1.O=C(O)CCC(=O)O` [0.5 Succinate of Example 71], the “LPS-induced IL-6 production (% Inhibition @ 10 mg/kg)” value in the data set on IL-6 production is 83.0%. In data set [1], the AUCinf came to 106.41 ng·h/mL, the AUCt was 104.34 ng·h/mL, the Cmax amounted to 79.8 ng/mL and the Kel was 0.64 h⁻¹. Further, in data set [1], the mean residence time MRT turned out to be 1.30 h; the T1/2 came out at 1.10 h; the time of peak concentration (Tmax) was found to be 0.50 h; the “Concentration (ng/mL), sampling time 0.5 h” value came out at 79.8 ng/mL. For the same compound, in data set [1], the “Concentration (ng/mL), sampling time 1 h” value worked out at 36.2 ng/mL; the “Concentration (ng/mL), sampling time 3 h” value is on record as 6.88 ng/mL; the “Concentration (ng/mL), sampling time 6 h” value amounted to 1.3 ng/mL.
In the case of `CC(=O)Nc1ccc(C2=NN(Cc3cccnc3)c3nnc(C)n3-c3sc(C)c(C)c32)cc1.Cl` [1 Hydrochloride of Example 71], in the data set on IL-6 production, the “LPS-induced IL-6 production (% Inhibition @ 10 mg/kg)” value worked out at 82.7%. In data set [1], the AUCinf was found to be 105.65 ng·h/mL, the AUCt came out at 114.07 ng·h/mL, the Cmax worked out at 111.0 ng/mL and the Kel came out at 0.57 h⁻¹. In data set [1], the MRT is given as 1.12 h; the T1/2 is 1.24 h; the time to peak (Tmax) is recorded as 0.50 h; the “Concentration (ng/mL), sampling time 0.5 h” value worked out at 111.0 ng/mL. In data set [1], the “Concentration (ng/mL), sampling time 1 h” value was 34.0 ng/mL; the “Concentration (ng/mL), sampling time 3 h” value was 6.75 ng/mL; the “Concentration (ng/mL), sampling time 6 h” value came out at 1.5 ng/mL.
Take `CC(=O)Nc1ccc(C2=NN(Cc3cccnc3)c3nnc(C)n3-c3sc(C)c(C)c32)cc1.O=C(O)/C=C\C(=O)O` [1 Maleate of Example 71]: in the data set with IL-6 production, the “LPS-induced IL-6 production (% Inhibition @ 10 mg/kg)” value came to 82.0%. Further, in data set [1], the AUCinf was 118.01 ng·h/mL, the AUCt was 115.41 ng·h/mL, the Cmax was determined as 80.1 ng/mL and the Kel stood at 0.64 h⁻¹. In data set [1], the MRT came to 1.27 h; the T1/2 is listed as 1.09 h; the Tmax was 0.50 h; the “Concentration (ng/mL), sampling time 0.5 h” value is recorded as 80.1 ng/mL. In data set [1], the “Concentration (ng/mL), sampling time 1 h” value turned out to be 42.9 ng/mL; the “Concentration (ng/mL), sampling time 3 h” value is reported as 7.69 ng/mL; the “Concentration (ng/mL), sampling time 6 h” value was 1.66 ng/mL.
What is called inhibition is the percentage by which the read-out fell short of the control. A word on the IC50: it is the concentration that inhibits the measured activity by half. A low value points to greater potency. As a reminder, the inhibition in vivo is the drop in the measured response relative to a control, in per cent. A lower inhibition in vivo goes with a weak effect. With `COc1ncccc1CN1N=C(c2ccc(Cl)cc2)c2c(sc(C)c2C)-n2c(C)nnc21` [Example 49, 4-(4-chlorophenyl)-6-((2-methoxypyridin-3-yl)methyl)-2,3,9-trimethyl-6H-thieno[2,3-e][1,2,4]triazolo[3,4-c][1,2,4]triazepine], in data set [2], the inhibition at 10 µM amounted to 100%. In addition, the 50% inhibitory concentration (IC50) with NF-κB is 197 nM. In the data set on IL-6 production, this compound yielded an inhibition in vivo at 10 mg/kg of 17.9%.
For the compound `COc1ncc(F)cc1CN1N=C(c2ccc(Cl)cc2)c2c(sc(C)c2C)-n2c(C)nnc21` [Example 89, 4-(4-chlorophenyl)-6-((5-fluoro-2-methoxypyridin-3-yl)methyl)-2,3,9-trimethyl-6H-thieno[2,3-e][1,2,4]triazolo[3,4-c][1,2,4]triazepine], in data set [2], the inhibition at 10 µM stood at 100%. In the data set on NF-κB, the IC50 came out at 556 nM.
For `Cc1sc2c(c1C)C(c1ccccc1)=NN(Cc1cccnc1F)c1nnc(C)n1-2` [Example 90, 6-((2-fluoropyridin-3-yl)methyl)-2,3,9-trimethyl-4-phenyl-6H-thieno[2,3-e][1,2,4]triazolo[3,4-c][1,2,4]triazepine], in that order: 100% and 298 nM.
`Cc1sc2c(c1C)C(c1ccc(N)cc1)=NN(Cc1cccnc1)c1nnc(C)n1-2` [Example 92, 4-(2,3,9-trimethyl-6-(pyridin-3-ylmethyl)-6H-thieno[2,3-e][1,2,4]triazolo[3,4-c][1,2,4]triazepin-4-yl)aniline] registered a half-maximal inhibitory concentration (IC50) with NF-κB of 34.2 nM. Also, testing at 10 mg/kg in the data set with IL-6 production gave an inhibition in vivo of 71%.
Turning to `CC(=O)Nc1ccc(C2=NNc3nnc(C)n3-c3sc(C)c(C)c32)cc1` [Example 94, N-(4-(2,3,9-trimethyl-6H-thieno[2,3-e][1,2,4]triazolo[3,4-c][1,2,4]triazepin-4-yl)phenyl)acetamide], in the data set on NF-κB, half-maximal inhibition (IC50) required 96 nM. The compound further returned an inhibition in vivo at 10 mg/kg in the data set on IL-6 production of 45.7%.
